Assay results taken from patent US11541015B2, “Self-righting systems, methods, and related components” (priority 2017, dated 2023).

Test system: glucose-6-phosphate
Details: micropost tips 40% G6PD and 60% PEO 200 k, versus uncompressed powder
Experimental: To perform the activity assay on G6PD, an activity assay kit (Sigma Aldrich) was used which measures the amount of oxidized glucose-6-phosphate. […] Duplicate assays were performed on the dissolved solution.

## glucose-6-phosphate dehydrogenase
  G6PD activity after the manufacturing process: maintain their activity
